# EPA's ToxValDB 9.5
# Legend:
# Mus musculus = conditions: acute; oral; gavage; M; ICR; clinical signs
# Ovis sp. = conditions: subchronic; duration: 8 weeks; oral; diet; no effects
# Daphnia magna = conditions: for NOEC: chronic/long-term, duration: 21 days
# Pontoscolex corethrurus = conditions: acute; mortality
# Sus scrofa = conditions: short-term; duration: 28 days; oral; diet; M/F; Not specified; no effects
# Bovidae = conditions: subchronic, oral, diet
# Canidae = conditions: for NOAEL: oral
# Gallus gallus = conditions: oral, diet
# [1] = repeat dose other
# Homo sapiens = conditions: clinical; duration: 22 days; oral; hematological
# Anas platyrhynchos = conditions: oral; for LD50: acute, unspecified, mortality
# Oryctolagus sp. = conditions: reproduction developmental
# Apis mellifera = conditions: acute, mortality
# Aphidius colemani = test: LR50; higher = less toxic; conditions: not reported; mortality
# Aphidius rhopalosiphi = conditions: not reported; mortality
# Zea sp. = conditions: acute; duration: 22 days; biomass
# Tagia sp. = conditions: acute; duration: 14 days; mortality
# Bibionidae = conditions: chronic/long-term, duration: 28 days
# Chrysoperla externa = test: LR50; higher = less toxic; conditions: not reported; duration: 34 days; mortality
# [2] = acute, duration: 96 hours, mortality
# [3] = chronic/long-term, duration: 28 days, growth
smiles,measurement,setting,value
C=C(/C=C\C[C@@H](O)[C@@H](O)[C@H](O)C/C=C/C=C\[C@@H](O)C[C@@H]1O[C@H](C[C@@H](O)[C@H](O)C[C@H]2O[C@H]([C@H](O)[C@H](O)CC[C@H](O)/C=C/[C@H](C)[C@@H](O)C[C@]3(O)O[C@H]([C@@H](O)[C@@H](O)CCCCCCC[C@@]45C[C@@H](C)C[C@@](C)(O4)[C@@H](CCCCCCC[C@@H](O)C[C@H](O)[C@@H](O)[C@@H](O)[C@H]4O[C@H](C[C@H](O)[C@H](O)/C(C)=C/[C@H](O)CC[C@H](O)C(=O)N/C=C/C(=O)NCCCO)[C@H](O)[C@@H](O)[C@@H]4O)O5)C[C@@H](O)[C@H]3O)C[C@@H](O)[C@@H]2O)[C@@H](O)[C@H](O)[C@H]1O)CC[C@H](O)[C@@H](O)[C@H](O)[C@H](C)C[C@H]1O[C@H](/C=C\[C@@H](O)[C@H](O)C[C@@H]2C[C@@H]3C[C@H](O2)[C@@H](CC[C@H]2O[C@H](CN)C[C@H]2O)O3)[C@@H](O)[C@H](O)[C@H]1O [Ostreocin-D],LOAEL,Mus musculus,0.2 mg/kg-day
COc1cc2c(c3oc4cccc(O)c4c(=O)c13)[C@@H]1C=CO[C@@H]1O2 [Sterigmatocystin],LEL,Ovis sp.,0.3 mg/kg-day
Cc1csc(C(C)C)n1 [2-Isopropyl-4-methylthiazole],LC50,"Daphnia magna; acute, mortality",9 mg/L
same,LC50,Pontoscolex corethrurus,194 mg/kg
O=C(O)CC(O)C(=O)O (configuration not stated) [Malic acid],LEL,Sus scrofa,12000 mg/kg-day
same,LEL,Bovidae; no effects,23000 mg/kg-day
same,LEL,"Canidae; chronic, duration: 104 weeks, M/F, Beagle, no effects",50000 mg/kg-day
same,LEL,"Gallus gallus; short-term, duration: 21 days, food consumption",20000 mg/kg-day
CCOP(=O)=O.CCOP(=O)=O.CCOP(=O)=O.[Al+3] [Fosetyl aluminum],NOAEL,"Rattus norvegicus; short-term, histopathology: nonneoplastic",500 mg/kg-day
same,NOEC,"Colinus virginianus; reproduction developmental, reproduction",216 mg/kg-day
CCc1occc(=O)c1O [2-Ethyl-3-hydroxy-4-pyrone],NOAEL,[1],200 mg/kg-day
CC(=O)[O-].CC(=O)[O-].O.O.O.O.[Co+2] [Cobalt(II) acetate tetrahydrate],LOAEL,Homo sapiens,1 mg/kg-day
N#Cc1cc(Br)c(O)c(Br)c1 [Bromoxynil],NOAEL,"Rattus norvegicus; developmental, development",4 mg/kg-day
same,NOAEL,"Canidae; chronic, duration: 1 years, Dog Other, organ weight",0.3 mg/kg-day
C=C1C[C@]23C[C@@]1(O)CC[C@H]2[C@@]12C=C[C@H](O)[C@@](C)(C(=O)O1)[C@H]2[C@@H]3C(=O)O [Gibberellic acid],LD50,"Rattus norvegicus; acute, oral, mortality",> 5000 mg/kg
same,NOEL,"Rattus norvegicus; reproduction developmental, no effects",1000 mg/kg-day
same,NOAEL,"Rattus norvegicus; subchronic, duration: 90 days, oral, organ weight",680 mg/kg-day
same,LD50,Anas platyrhynchos,> 2000 mg/kg
same,LD50,"Colinus virginianus; acute, oral, diet, mortality",> 904 mg/kg-day
same,NOEL,Oryctolagus sp.; no effects,1000 mg/kg-day
same,LD50,Apis mellifera; dermal,> 25 µg/piece
same,LR50,Aphidius colemani,> 10 g/ha
"CCCC/C=C\CCO [3-Octen-1-ol, (3Z)-]",LC50,Pontoscolex corethrurus,194 mg/kg
c1csc(SSc2cccs2)c1 [2-Thienyl disulfide],NOAEL,"Rattus norvegicus; subchronic, duration: 90 days",0.29 mg/kg-day
same,NOAEL,[1],0.29 mg/kg-day
C/C=C(\C)C(=O)O[C@H]1C[C@@H](OC(C)=O)[C@@]2(C(=O)OC)CO[C@H]3[C@@H](O)[C@@](C)([C@]45O[C@@]4(C)[C@H]4C[C@@H]5O[C@@H]5OC=C[C@@]54O)[C@H]4[C@]1(CO[C@]4(O)C(=O)OC)[C@@H]32 [Azadirachtin],LEL,Aphidius rhopalosiphi,57.6 g/ha
same,LEL,Zea sp.,30.9 g/ha
same,NOEC,Daphnia magna; reproduction,0.038 mg/L
same,LC50,Tagia sp.,> 1000 mg/kg
same,NOEC,Bibionidae,0.0016 mg/L
same,NOEC,Bibionidae; development,0.0016 mg/L
same,LD50,Apis mellifera; dermal,> 11.8 µg/piece
same,LD50,"Apis mellifera; duration: 48 hours, oral, unspecified",> 8.1 µg/piece
same,LD50,"Apis mellifera; oral, unspecified",> 8.1 µg/piece
same,LC50,Oncorhynchus mykiss; [2],0.048 mg/L
same,NOEC,Oncorhynchus mykiss; [3],0.0047 mg/L
same,LR50,Chrysoperla externa,0.77 g/ha
COCCOC(=O)C(C#N)(C(=O)c1ccccc1C(F)(F)F)c1ccc(C(C)(C)C)cc1 (configuration not stated) [Cyflumetofen],NOEC,Daphnia magna; mortality,0.065 mg/L
same,LC50,Cyprinus carpio; [2],> 0.54 mg/L
same,NOEC,Cyprinus carpio; [3],≥ 0.072 mg/L
same,NOEC,Bibionidae; development,≥ 0.064 mg/L
O=C(NC(=O)c1c(F)cccc1F)Nc1ccc(Cl)cc1 [Diflubenzuron],LD50,"Rattus norvegicus; acute, dermal, mortality",> 2000 mg/kg
same,LC50,"Rattus norvegicus; acute, duration: 4 hours, inhalation, mortality",> 2.5 mg/L
same,LD50,"Rattus norvegicus; acute, oral, mortality",> 4640 mg/kg
same,NOAEL,"Canidae; chronic, duration: 1 years, Dog Other, hematological",10 mg/kg-day
ClC1=C(Cl)[C@]2(Cl)[C@@H]3[C@@H](Cl)[C@H]4O[C@H]4[C@@H]3C1(Cl)C2(Cl)Cl [Heptachlor epoxide B],NOAEL,Bovidae; F,1.5 mg/kg-day
same,NOAEL,"Canidae; chronic, duration: 2 years, diet, M/F, Beagle, clinical chemistry",0.025 mg/kg-day
same,NOAEL,"Gallus gallus; chronic, duration: 25 weeks, M/F, development",0.002 mg/kg-day
CC(O)C(=O)O (configuration not stated) [Lactic acid],LEL,"Gallus gallus; subchronic, duration: 42 days, Chicken, no effects",30000 mg/kg-day
CCS(=O)(=O)c1cccnc1S(=O)(=O)NC(=O)Nc1nc(OC)cc(OC)n1 [Rimsulfuron],LD50,"Rattus norvegicus; acute, oral, mortality",> 5000 mg/kg-day
same,NOAEL,"Rattus norvegicus; chronic, duration: 2 years, oral, body weight",11.8 mg/kg-day
same,NOAEL,"Rattus norvegicus; reproduction developmental, body weight",165 mg/kg-day
same,NOAEL,"Canidae; subchronic, duration: 90 days, Dog Other, body weight",9.63 mg/kg-day
same,LD50,Anas platyrhynchos,> 2000 mg/kg-day
same,NOEC,"Anas platyrhynchos; reproductive, feed",117 mg/kg-day
same,NOAEL,Oryctolagus sp.; mortality,170 mg/kg-day
COc1nccnc1C [2-Methoxy-3-methylpyrazine],LC50,Pontoscolex corethrurus,245 mg/kg
